Reference: the NIST ThermoML archive (doi:10.1016/j.jct.2013.12.025)
± gives the expanded uncertainty stated by the source.

Test: xn = mol fraction of the nth substance listed
Conditions: 101 kPa, Liquid, Vibrating tube method

C=C[Si](C)(C)O[Si](C)(C)C=C [1,3-diethenyl-1,1,3,3-tetramethyldisiloxane] + O=[N+]([O-])c1ccccc1
mass density [kg/m3]
Conditions | 283.15 K | 288.15 K | 293.15 K | 298.15 K | 303.15 K
x1 = 0.05 | 1176.35 ± 1 | 1171.43 ± 1 | 1166.52 ± 1 | 1161.69 ± 1 | 1156.82 ± 1
x1 = 0.1 | 1142.71 ± 1 | 1137.83 ± 1 | 1132.97 ± 1 | 1128.22 ± 1 | 1123.45 ± 1
x1 = 0.15 | 1111.83 ± 1 | 1106.98 ± 1 | 1102.13 ± 1 | 1097.43 ± 1 | 1092.67 ± 1
x1 = 0.2 | 1083.35 ± 1 | 1078.52 ± 1 | 1073.67 ± 1 | 1068.96 ± 1 | 1064.2 ± 1
x1 = 0.25 | 1057.23 ± 1 | 1052.41 ± 1 | 1047.57 ± 1 | 1042.87 ± 1 | 1038.12 ± 1
x1 = 0.3 | 1033.06 ± 1 | 1028.23 ± 1 | 1023.4 ± 1 | 1018.69 ± 1 | 1013.92 ± 1
x1 = 0.3508 | 1010.38 ± 1 | 1005.54 ± 1 | 1000.74 ± 1 | 996.01 ± 1 | 991.23 ± 1
x1 = 0.4001 | 989.98 ± 1 | 985.14 ± 1 | 980.32 ± 1 | 975.57 ± 1 | 970.77 ± 1
x1 = 0.4501 | 970.75 ± 1 | 965.91 ± 1 | 961.08 ± 1 | 956.32 ± 1 | 951.52 ± 1
x1 = 0.4999 | 952.93 ± 1 | 948.07 ± 1 | 943.22 ± 1 | 938.45 ± 1 | 933.61 ± 1
x1 = 0.55 | 936.17 ± 1 | 931.3 ± 1 | 926.44 ± 1 | 921.66 ± 1 | 916.81 ± 1
x1 = 0.6001 | 920.46 ± 1 | 915.57 ± 1 | 910.7 ± 1 | 905.91 ± 1 | 901.03 ± 1
x1 = 0.6487 | 906.15 ± 1 | 901.26 ± 1 | 896.39 ± 1 | 891.58 ± 1 | 886.71 ± 1
x1 = 0.6999 | 891.87 ± 1 | 887 ± 1 | 882.12 ± 1 | 877.3 ± 1 | 872.42 ± 1
x1 = 0.7499 | 878.8 ± 1 | 873.92 ± 1 | 869.03 ± 1 | 864.21 ± 1 | 859.31 ± 1
x1 = 0.7999 | 866.41 ± 1 | 861.51 ± 1 | 856.6 ± 1 | 851.77 ± 1 | 846.84 ± 1
x1 = 0.8497 | 854.66 ± 1 | 849.77 ± 1 | 844.87 ± 1 | 840.06 ± 1 | 835.12 ± 1
x1 = 0.9 | 843.43 ± 1 | 838.53 ± 1 | 833.62 ± 1 | 828.8 ± 1 | 823.86 ± 1
x1 = 0.9499 | 832.79 ± 1 | 827.88 ± 1 | 822.98 ± 1 | 818.14 ± 1 | 813.2 ± 1
x1 = 1 | 822.64 ± 1 | 817.73 ± 1 | 812.82 ± 1 | 807.98 ± 1 | 803.03 ± 1
